Test [1] addresses T1, USP2 (Homo sapiens, UniProt O75604).
T1 construct: expressed in E. coli BL21(DE3)-RIL, nickel column purification
T1 sequence (O75604 250-605): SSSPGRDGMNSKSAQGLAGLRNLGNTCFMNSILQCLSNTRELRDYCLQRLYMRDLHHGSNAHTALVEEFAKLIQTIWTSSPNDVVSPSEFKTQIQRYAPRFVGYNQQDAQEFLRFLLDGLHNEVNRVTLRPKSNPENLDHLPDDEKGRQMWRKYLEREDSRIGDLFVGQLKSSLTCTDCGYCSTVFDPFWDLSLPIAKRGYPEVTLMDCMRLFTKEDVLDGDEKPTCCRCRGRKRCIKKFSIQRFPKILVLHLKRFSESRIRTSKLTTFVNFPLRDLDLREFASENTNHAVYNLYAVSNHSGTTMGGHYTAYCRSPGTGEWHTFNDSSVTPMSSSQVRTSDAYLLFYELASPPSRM
In words: fluorescence polarization deubiquitination assay (IsoMim). Format: biochemical.

For test [2], the target named is T2, UCHL3 (Homo sapiens, UniProt P15374).
T2 construct: expressed in E. coli BL21(DE3)-RIL, nickel column purification
T2 sequence (P15374 1-230): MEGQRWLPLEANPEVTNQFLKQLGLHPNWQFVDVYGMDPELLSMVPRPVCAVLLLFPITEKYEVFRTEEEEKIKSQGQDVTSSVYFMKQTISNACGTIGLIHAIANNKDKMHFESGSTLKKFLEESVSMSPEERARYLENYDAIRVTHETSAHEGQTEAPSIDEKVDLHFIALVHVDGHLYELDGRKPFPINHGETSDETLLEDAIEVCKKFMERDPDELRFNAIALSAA
Described as above. The format is biochemical.

Take `N#CSc1cc(SC#N)c(N)nc1N` [PR-619]: the results for the IC50 in test [1] and in test [2] were 1070 nM and 4.68 µM, respectively.

The values are drawn from paper PMC12273560, “A versatile fluorescence polarization-based deubiquitination assay using an isopeptide bond substrate mimetic (IsoMim)” (The Journal of Biological Chemistry, 2025).
